Results: PubChem BioAssay AID743476 (The Scripps Research Institute Molecular Screening Center, 2014)
Active and inactive are the calls of the source. How the calls were made is not given here.

Tested on: CCHF-vOTU
Experiment: PubChem AID 743476
Conditions: Recombinant CCHFV vOTU, PEP-AMC fluorescence cleavage, with PEP-AMC substrate, stronger effect = higher value

Question: How did the inhibition (Assay 1, at 7.79 µM) turn out when `Cc1ccc2c(c1C)-c1c(ccc(C)c1C)C(=O)C2=O` was run?
Answer: -37.1% (inactive)

Question: And the inhibition (Assay 2, at 7.79 µM)?
Answer: 18% (inactive)

Question: What about the inhibition (Assay 3, at 15.58 µM) of the same compound?
Answer: 38.4%

Question: Which inhibition (Assay 1, at 2.56 µM) does the source give for `Cc1cnc(C2OCCO2)c2cccc(N)c12` here?
Answer: 16.2% (inactive)

Question: And the inhibition (Assay 2, at 2.56 µM)?
Answer: 0.6% (inactive)

Question: And the inhibition (Assay 3, at 5.12 µM)?
Answer: 1% (inactive)

Question: How did the inhibition (Assay 1, at 6.44 µM) turn out when `S=C(Nc1ccc(Cl)cc1)Nc1cccc2cnccc12` was run?
Answer: -17.9% (inactive)

Question: What about the inhibition (Assay 2, at 6.44 µM) of the same compound?
Answer: 5.81% (inactive)

Question: And the inhibition (Assay 3, at 12.88 µM)?
Answer: 7.7% (inactive)

Question: Which inhibition (Assay 1, at 6.32 µM) does the source give for `CCC(CNc1cc(OC)cc2cccnc12)NC1CCCCC1` (stereo not drawn) here?
Answer: -27% (inactive)

Question: And the inhibition (Assay 2, at 6.32 µM)?
Answer: 13.6% (inactive)

Question: And the inhibition (Assay 3, at 12.64 µM)?
Answer: 52.4%

Question: How did the inhibition (Assay 1, at 4.21 µM) turn out when `Cc1ccc(N2C(=O)[C@@H]3[C@H](C2=O)C2c4ccccc4C=CN2[C@@H]3C(=O)c2ccco2)cc1` (stereo partly drawn) was run?
Answer: 8.15% (inactive)

Question: What about the inhibition (Assay 2, at 4.21 µM) of the same compound?
Answer: 18.6% (inactive)

Question: What about the inhibition (Assay 3, at 8.42 µM) of the same compound?
Answer: 44.7%

Question: Which results are given for `COc1ccccc1NC(=O)COC(=O)c1ccc([N+](=O)[O-])s1`?
Answer: inhibition (Assay 1, at 9.94 µM): -1.05% (inactive); inhibition (Assay 2, at 9.94 µM): 9.34% (inactive); inhibition (Assay 3, at 19.88 µM): 20%

Question: Which results are given for `O=C(OCc1nnc(-c2ccccc2)o1)c1ccc([N+](=O)[O-])s1`?
Answer: inhibition (Assay 1, at 7.52 µM): 3.79% (inactive); inhibition (Assay 2, at 7.52 µM): -3.16% (inactive); inhibition (Assay 3, at 15.04 µM): 25%

Question: How did the inhibition (Assay 1, at 0.27 µM) turn out when `COc1cc(Br)c(C(=O)c2nccc3cc(OC)c(OC)cc23)cc1OC` was run?
Answer: 31.9%

Question: And the inhibition (Assay 2, at 0.27 µM)?
Answer: 25.2%

Question: With `O=C(O)CSc1cc(NS(=O)(=O)c2cccc([N+](=O)[O-])c2)c2ccccc2c1O` as the compound, how does the inhibition (Assay 1, at 2.44 µM) read?
Answer: -7.65% (inactive)

Question: What about the inhibition (Assay 2, at 2.44 µM) of the same compound?
Answer: 5.22% (inactive)

Question: And the inhibition (Assay 3, at 4.88 µM)?
Answer: 13.1% (inactive)

Question: For `CC1(C)C=C2C(=NN(c3ccccc3)C(N)=C2C#N)CO1`, which inhibition (Assay 1, at 1.83 µM) is on record?
Answer: -4.71% (inactive)

Question: And the inhibition (Assay 2, at 1.83 µM)?
Answer: 23.4%

Question: Which results are given for `O=C(NC1=CC(=O)c2ccccc2C1=O)c1ccccc1`?
Answer: inhibition (Assay 1, at 3.85 µM): 5.25% (inactive); inhibition (Assay 2, at 3.85 µM): 9.67% (inactive); inhibition (Assay 3, at 7.7 µM): 16.4% (inactive)

Question: What does the source list for `O=C(NC1=C(NC2CCS(=O)(=O)C2)C(=O)c2ccccc2C1=O)c1ccccc1` (stereo not drawn)?
Answer: inhibition (Assay 1, at 3.9 µM): 4.88% (inactive); inhibition (Assay 2, at 3.9 µM): 22.6%

Question: With `Cn1nc(-c2ccccn2)nc2c(=O)n(C)c(=O)nc1-2` as the compound, how does the inhibition (Assay 1, at 0.37 µM) read?
Answer: 63.3%

Question: And the inhibition (Assay 2, at 0.37 µM)?
Answer: 56.2%

Question: `O=C(COC(=O)c1ccc([N+](=O)[O-])s1)Nc1ncc(C(F)(F)F)cc1Cl` was tested. Which inhibition (Assay 1, at 8.84 µM) did it give?
Answer: 23.2%

Question: What about the inhibition (Assay 2, at 8.84 µM) of the same compound?
Answer: 19.8% (inactive)

Question: What about the inhibition (Assay 3, at 17.68 µM) of the same compound?
Answer: 30.5%

Question: How did the inhibition (Assay 1, at 0.4 µM) turn out when `O=C1Cc2ccccc2C(=O)N1` was run?
Answer: 38.8%

Question: What about the inhibition (Assay 2, at 0.4 µM) of the same compound?
Answer: 54.3%

Question: Which inhibition (Assay 1, at 2.43 µM) does the source give for `CN(C1=C(NC(=O)c2ccccc2)C(=O)c2ccccc2C1=O)C1CCS(=O)(=O)C1` (stereo not drawn) here?
Answer: 54.2%

Question: And the inhibition (Assay 2, at 2.43 µM)?
Answer: 22.7%

Question: What does the source list for `CCOC(=O)C1=C(COC(=O)c2ccc([N+](=O)[O-])s2)NC(=O)NC1C` (stereo not drawn)?
Answer: inhibition (Assay 1, at 7.84 µM): 5.42% (inactive); inhibition (Assay 2, at 7.84 µM): 9.9% (inactive); inhibition (Assay 3, at 15.68 µM): 6% (inactive)

Question: Which results are given for `COc1cc(NCCCC(C)N)c2ncccc2c1` (stereo not drawn)?
Answer: inhibition (Assay 1, at 2.52 µM): 25.6%; inhibition (Assay 2, at 2.52 µM): 0.7% (inactive); inhibition (Assay 3, at 5.04 µM): -1.2% (inactive)

Question: Which results are given for `O=C(/C=C/c1ccc(O)cc1)c1ccc(NC2=C(N3CCCCC3)C(=O)c3ccccc3C2=O)cc1`?
Answer: inhibition (Assay 1, at 3.35 µM): 14.3% (inactive); inhibition (Assay 2, at 3.35 µM): 16.3% (inactive); inhibition (Assay 3, at 6.7 µM): 33.6%

Question: How did the inhibition (Assay 1, at 5.26 µM) turn out when `O=C(c1ccco1)[C@@H]1[C@@H]2C(=O)N(c3ccc(Br)cc3)C(=O)[C@@H]2C2c3ccccc3C=CN21` (stereo partly drawn) was run?
Answer: -13.1% (inactive)

Question: What about the inhibition (Assay 2, at 5.26 µM) of the same compound?
Answer: 37.6%

Question: With `CCn1nc(/C=C/c2ccccc2)nc2c(=O)n(C)c(=O)nc1-2` as the compound, how does the inhibition (Assay 1, at 0.28 µM) read?
Answer: 58.4%

Question: And the inhibition (Assay 2, at 0.28 µM)?
Answer: 91.9%

Question: What does the source list for `COc1ccc2noc3c2c1C(=O)c1ccccc1-3`?
Answer: inhibition (Assay 1, at 3.08 µM): 16.5% (inactive); inhibition (Assay 2, at 3.08 µM): 15.2% (inactive); inhibition (Assay 3, at 6.16 µM): 64.3%
